Source: ChEMBL document CHEMBL4507302, “Data for DCP probe TP-020” (2021)

Assays:
[1] = target: Activin receptor type-1 (Homo sapiens) (UniProt Q04771); conditions: Compound concentration 1000.0 nM
[2] = target: Activin receptor type-1B (Homo sapiens) (UniProt P36896); conditions: Compound concentration 1000.0 nM
[3] = target: RAC-alpha serine/threonine-protein kinase (Homo sapiens) (UniProt P31749); conditions: Compound concentration 1000.0 nM
[4] = target: RAC-beta serine/threonine-protein kinase (Homo sapiens) (UniProt P31751); conditions: Compound concentration 1000.0 nM
[5] = target: Cyclin-dependent kinase 5 (Homo sapiens) (UniProt Q00535); conditions: Compound concentration 1000.0 nM
[6] = target: Cyclin-dependent kinase 8 (Homo sapiens) (UniProt P49336); conditions: Compound concentration 1000.0 nM
[7] = target: Cyclin-dependent kinase 9 (Homo sapiens) (UniProt P50750); conditions: Compound concentration 1000.0 nM
[8] = target: Death-associated protein kinase 1 (Homo sapiens) (UniProt P53355); conditions: Compound concentration 1000.0 nM
[9] = target: Dual specificity tyrosine-phosphorylation-regulated kinase 1B (Homo sapiens) (UniProt Q9Y463); conditions: Compound concentration 1000.0 nM
[10] = target: Epidermal growth factor receptor (Homo sapiens) (UniProt P00533); conditions: Compound concentration 1000.0 nM
[11] = test system: Epidermal growth factor receptor (Homo sapiens), P00533 [UNDEFINED MUTATION]; conditions: Compound concentration 1000.0 nM
[12] = test system: Epidermal growth factor receptor (Homo sapiens), P00533 [L858R,T790M]; conditions: Compound concentration 1000.0 nM
[13] = target: Ephrin type-A receptor 2 (Homo sapiens) (UniProt P29317); conditions: Compound concentration 1000.0 nM
[14] = target: Mitogen-activated protein kinase 15 (Homo sapiens) (UniProt Q8TD08); conditions: Compound concentration 1000.0 nM
[15] = target: Tyrosine-protein kinase Fes/Fps (Homo sapiens) (UniProt P07332); conditions: Compound concentration 1000.0 nM
[16] = target: Fibroblast growth factor receptor 1 (Homo sapiens) (UniProt P11362); conditions: Compound concentration 1000.0 nM
[17] = test system: Receptor-type tyrosine-protein kinase FLT3 (Homo sapiens), P36888 [D835V]; conditions: Compound concentration 1000.0 nM
[18] = target: G protein-coupled receptor kinase 3 (Homo sapiens) (UniProt P35626); conditions: Compound concentration 1000.0 nM
[19] = target: Mast/stem cell growth factor receptor Kit (Homo sapiens) (UniProt P10721); conditions: Compound concentration 1000.0 nM
[20] = target: MAP kinase-activated protein kinase 2 (Homo sapiens) (UniProt P49137); conditions: Compound concentration 1000.0 nM
[21] = target: Dual specificity mitogen-activated protein kinase kinase 5 (Homo sapiens) (UniProt Q13163); conditions: Compound concentration 1000.0 nM
[22] = target: Hepatocyte growth factor receptor (Homo sapiens) (UniProt P08581); conditions: Compound concentration 1000.0 nM
[23] = target: Mitogen-activated protein kinase kinase kinase 9 (Homo sapiens) (UniProt P80192); conditions: Compound concentration 1000.0 nM
[24] = target: Myosin-IIIa (Homo sapiens) (UniProt Q8NEV4); conditions: Compound concentration 1000.0 nM
[25] = target: Serine/threonine-protein kinase Nek4 (Homo sapiens) (UniProt P51957); conditions: Compound concentration 1000.0 nM
[26] = target: Serine/threonine-protein kinase Nek5 (Homo sapiens) (UniProt Q6P3R8); conditions: Compound concentration 1000.0 nM
[27] = target: Serine/threonine-protein kinase Nek7 (Homo sapiens) (UniProt Q8TDX7); conditions: Compound concentration 1000.0 nM
[28] = target: Mitogen-activated protein kinase kinase kinase 14 (Homo sapiens) (UniProt Q99558); conditions: Compound concentration 1000.0 nM
[29] = target: Serine/threonine-protein kinase NLK (Homo sapiens) (UniProt Q9UBE8); conditions: Compound concentration 1000.0 nM
[30] = target: 3-phosphoinositide-dependent protein kinase 1 (Homo sapiens) (UniProt O15530); conditions: Compound concentration 1000.0 nM
[31] = test system: Phosphatidylinositol 4,5-bisphosphate 3-kinase catalytic subunit alpha isoform (Homo sapiens), P42336 [E542K]; conditions: Compound concentration 1000.0 nM
[32] = test system: Phosphatidylinositol 4,5-bisphosphate 3-kinase catalytic subunit alpha isoform (Homo sapiens), P42336 [E545A]; conditions: Compound concentration 1000.0 nM
[33] = target: Serine/threonine-protein kinase pim-3 (Homo sapiens) (UniProt Q86V86); conditions: Compound concentration 1000.0 nM
[34] = target: Membrane-associated tyrosine- and threonine-specific cdc2-inhibitory kinase (Homo sapiens) (UniProt Q99640); conditions: Compound concentration 1000.0 nM
[35] = target: Serine/threonine-protein kinase RIO1 (Homo sapiens) (UniProt Q9BRS2); conditions: Compound concentration 1000.0 nM
[36] = target: Dual serine/threonine and tyrosine protein kinase (Homo sapiens) (UniProt Q6XUX3); conditions: Compound concentration 1000.0 nM
[37] = target: Ribosomal protein S6 kinase alpha-4 (Homo sapiens) (UniProt O75676); conditions: Compound concentration 1000.0 nM
[38] = target: Ribosomal protein S6 kinase alpha-5 (Homo sapiens) (UniProt O75582); conditions: Compound concentration 1000.0 nM
[39] = target: Ribosomal protein S6 kinase alpha-3 (Homo sapiens) (UniProt P51812); conditions: Compound concentration 1000.0 nM
[40] = target: Tyrosine-protein kinase SYK (Homo sapiens) (UniProt P43405); conditions: Compound concentration 1000.0 nM
[41] = target: Serine/threonine-protein kinase TAO3 (Homo sapiens) (UniProt Q9H2K8); conditions: Compound concentration 1000.0 nM
[42] = target: BDNF/NT-3 growth factors receptor (Homo sapiens) (UniProt Q16620); conditions: Compound concentration 1000.0 nM
[43] = target: 5-hydroxytryptamine receptor 1E (Homo sapiens) (UniProt P28566); conditions: Compound concentration 10.0 uM
[44] = target: Sodium-dependent serotonin transporter (Homo sapiens) (UniProt P31645); conditions: Compound concentration 10.0 uM
[45] = target: Histamine H1 receptor (Homo sapiens) (UniProt P35367); conditions: Compound concentration 10.0 uM

Sequence of Dual specificity mitogen-activated protein kinase kinase 5 (Homo sapiens) (Q13163 whole entry): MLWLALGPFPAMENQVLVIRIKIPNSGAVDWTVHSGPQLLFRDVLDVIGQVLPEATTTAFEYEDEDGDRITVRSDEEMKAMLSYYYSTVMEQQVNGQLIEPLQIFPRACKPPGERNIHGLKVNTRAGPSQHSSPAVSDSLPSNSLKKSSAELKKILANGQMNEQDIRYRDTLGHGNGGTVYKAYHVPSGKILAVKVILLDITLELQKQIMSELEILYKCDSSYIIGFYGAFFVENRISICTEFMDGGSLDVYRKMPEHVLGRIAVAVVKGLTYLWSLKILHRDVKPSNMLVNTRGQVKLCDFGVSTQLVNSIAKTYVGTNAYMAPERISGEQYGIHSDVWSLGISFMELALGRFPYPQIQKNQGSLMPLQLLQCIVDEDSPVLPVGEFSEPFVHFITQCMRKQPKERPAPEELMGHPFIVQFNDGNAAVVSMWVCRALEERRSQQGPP
Sequence of Cyclin-dependent kinase 5 (Homo sapiens) (Q00535 whole entry, looked up): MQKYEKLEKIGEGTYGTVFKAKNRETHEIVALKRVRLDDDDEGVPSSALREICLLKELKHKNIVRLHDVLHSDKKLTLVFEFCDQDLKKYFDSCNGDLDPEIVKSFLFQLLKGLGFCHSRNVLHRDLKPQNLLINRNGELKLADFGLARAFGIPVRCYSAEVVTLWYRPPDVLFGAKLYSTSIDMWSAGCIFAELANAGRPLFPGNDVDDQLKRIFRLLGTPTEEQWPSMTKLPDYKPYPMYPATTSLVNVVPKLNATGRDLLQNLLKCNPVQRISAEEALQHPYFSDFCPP
Sequence of G protein-coupled receptor kinase 3 (Homo sapiens) (P35626 whole entry): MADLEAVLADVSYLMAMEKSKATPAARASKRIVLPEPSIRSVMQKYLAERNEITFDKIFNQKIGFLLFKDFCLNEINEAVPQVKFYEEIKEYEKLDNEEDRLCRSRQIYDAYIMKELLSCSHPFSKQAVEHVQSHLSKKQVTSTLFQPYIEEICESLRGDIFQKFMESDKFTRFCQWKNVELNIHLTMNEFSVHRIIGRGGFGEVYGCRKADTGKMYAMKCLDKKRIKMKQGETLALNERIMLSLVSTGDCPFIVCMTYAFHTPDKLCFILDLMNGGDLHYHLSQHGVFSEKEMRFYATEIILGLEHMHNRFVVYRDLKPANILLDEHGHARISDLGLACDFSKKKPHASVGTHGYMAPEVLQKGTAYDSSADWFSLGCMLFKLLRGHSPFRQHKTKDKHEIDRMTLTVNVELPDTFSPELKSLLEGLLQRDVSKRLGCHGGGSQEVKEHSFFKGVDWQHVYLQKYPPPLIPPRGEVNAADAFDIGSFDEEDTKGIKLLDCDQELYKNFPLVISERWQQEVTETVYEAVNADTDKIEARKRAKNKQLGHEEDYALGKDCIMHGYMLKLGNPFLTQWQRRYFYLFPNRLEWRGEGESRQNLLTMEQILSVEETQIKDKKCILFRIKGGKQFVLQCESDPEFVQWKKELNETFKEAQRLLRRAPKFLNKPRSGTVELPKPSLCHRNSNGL
Sequence of Dual serine/threonine and tyrosine protein kinase (Homo sapiens) (Q6XUX3 whole entry): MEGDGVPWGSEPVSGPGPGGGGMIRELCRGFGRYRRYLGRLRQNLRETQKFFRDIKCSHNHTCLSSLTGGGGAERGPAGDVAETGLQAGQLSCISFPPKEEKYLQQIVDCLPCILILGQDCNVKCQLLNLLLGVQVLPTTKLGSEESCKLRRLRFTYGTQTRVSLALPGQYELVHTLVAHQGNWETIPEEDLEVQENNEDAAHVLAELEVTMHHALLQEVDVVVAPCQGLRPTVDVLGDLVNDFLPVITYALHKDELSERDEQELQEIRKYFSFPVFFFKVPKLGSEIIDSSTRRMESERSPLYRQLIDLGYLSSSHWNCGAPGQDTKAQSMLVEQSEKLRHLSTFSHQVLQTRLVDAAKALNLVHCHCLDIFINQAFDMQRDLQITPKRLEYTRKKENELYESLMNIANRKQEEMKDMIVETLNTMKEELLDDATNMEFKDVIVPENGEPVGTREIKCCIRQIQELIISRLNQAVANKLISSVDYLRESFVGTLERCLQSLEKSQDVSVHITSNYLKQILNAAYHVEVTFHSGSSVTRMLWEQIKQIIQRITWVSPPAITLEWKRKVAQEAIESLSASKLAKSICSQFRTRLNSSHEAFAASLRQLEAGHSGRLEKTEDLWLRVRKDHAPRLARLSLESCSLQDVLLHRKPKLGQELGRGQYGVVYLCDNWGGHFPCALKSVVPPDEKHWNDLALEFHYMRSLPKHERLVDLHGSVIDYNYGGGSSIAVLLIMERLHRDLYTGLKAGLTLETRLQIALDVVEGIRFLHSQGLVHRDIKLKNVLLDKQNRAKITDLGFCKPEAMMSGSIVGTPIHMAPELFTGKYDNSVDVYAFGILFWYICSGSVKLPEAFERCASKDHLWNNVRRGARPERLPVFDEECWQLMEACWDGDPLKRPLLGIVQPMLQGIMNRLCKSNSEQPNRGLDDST
Sequence of Serine/threonine-protein kinase TAO3 (Homo sapiens) (Q9H2K8 whole entry): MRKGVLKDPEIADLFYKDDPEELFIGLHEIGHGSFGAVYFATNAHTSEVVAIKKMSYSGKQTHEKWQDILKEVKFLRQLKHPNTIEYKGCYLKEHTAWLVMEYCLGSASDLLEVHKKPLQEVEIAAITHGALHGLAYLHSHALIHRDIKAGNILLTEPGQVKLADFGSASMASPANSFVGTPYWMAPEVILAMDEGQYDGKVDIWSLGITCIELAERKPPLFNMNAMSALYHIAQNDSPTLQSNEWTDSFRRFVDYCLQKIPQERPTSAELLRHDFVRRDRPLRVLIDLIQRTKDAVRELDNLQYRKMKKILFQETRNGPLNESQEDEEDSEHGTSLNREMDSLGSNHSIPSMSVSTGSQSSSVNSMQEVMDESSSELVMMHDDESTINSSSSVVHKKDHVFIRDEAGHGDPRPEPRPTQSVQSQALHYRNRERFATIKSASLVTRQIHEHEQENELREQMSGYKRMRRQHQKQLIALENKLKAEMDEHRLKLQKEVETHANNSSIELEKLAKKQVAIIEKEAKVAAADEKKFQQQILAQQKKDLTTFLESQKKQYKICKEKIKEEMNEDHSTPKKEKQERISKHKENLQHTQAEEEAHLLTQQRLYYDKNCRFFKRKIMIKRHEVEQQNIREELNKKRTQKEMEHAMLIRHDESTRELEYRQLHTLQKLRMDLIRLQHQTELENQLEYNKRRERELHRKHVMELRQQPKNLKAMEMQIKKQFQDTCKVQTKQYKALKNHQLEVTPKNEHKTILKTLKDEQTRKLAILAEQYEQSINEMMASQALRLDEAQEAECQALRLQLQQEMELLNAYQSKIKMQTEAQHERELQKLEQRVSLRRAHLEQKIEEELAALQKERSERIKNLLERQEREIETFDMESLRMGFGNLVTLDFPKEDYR
Sequence of Hepatocyte growth factor receptor (Homo sapiens) (P08581 whole entry): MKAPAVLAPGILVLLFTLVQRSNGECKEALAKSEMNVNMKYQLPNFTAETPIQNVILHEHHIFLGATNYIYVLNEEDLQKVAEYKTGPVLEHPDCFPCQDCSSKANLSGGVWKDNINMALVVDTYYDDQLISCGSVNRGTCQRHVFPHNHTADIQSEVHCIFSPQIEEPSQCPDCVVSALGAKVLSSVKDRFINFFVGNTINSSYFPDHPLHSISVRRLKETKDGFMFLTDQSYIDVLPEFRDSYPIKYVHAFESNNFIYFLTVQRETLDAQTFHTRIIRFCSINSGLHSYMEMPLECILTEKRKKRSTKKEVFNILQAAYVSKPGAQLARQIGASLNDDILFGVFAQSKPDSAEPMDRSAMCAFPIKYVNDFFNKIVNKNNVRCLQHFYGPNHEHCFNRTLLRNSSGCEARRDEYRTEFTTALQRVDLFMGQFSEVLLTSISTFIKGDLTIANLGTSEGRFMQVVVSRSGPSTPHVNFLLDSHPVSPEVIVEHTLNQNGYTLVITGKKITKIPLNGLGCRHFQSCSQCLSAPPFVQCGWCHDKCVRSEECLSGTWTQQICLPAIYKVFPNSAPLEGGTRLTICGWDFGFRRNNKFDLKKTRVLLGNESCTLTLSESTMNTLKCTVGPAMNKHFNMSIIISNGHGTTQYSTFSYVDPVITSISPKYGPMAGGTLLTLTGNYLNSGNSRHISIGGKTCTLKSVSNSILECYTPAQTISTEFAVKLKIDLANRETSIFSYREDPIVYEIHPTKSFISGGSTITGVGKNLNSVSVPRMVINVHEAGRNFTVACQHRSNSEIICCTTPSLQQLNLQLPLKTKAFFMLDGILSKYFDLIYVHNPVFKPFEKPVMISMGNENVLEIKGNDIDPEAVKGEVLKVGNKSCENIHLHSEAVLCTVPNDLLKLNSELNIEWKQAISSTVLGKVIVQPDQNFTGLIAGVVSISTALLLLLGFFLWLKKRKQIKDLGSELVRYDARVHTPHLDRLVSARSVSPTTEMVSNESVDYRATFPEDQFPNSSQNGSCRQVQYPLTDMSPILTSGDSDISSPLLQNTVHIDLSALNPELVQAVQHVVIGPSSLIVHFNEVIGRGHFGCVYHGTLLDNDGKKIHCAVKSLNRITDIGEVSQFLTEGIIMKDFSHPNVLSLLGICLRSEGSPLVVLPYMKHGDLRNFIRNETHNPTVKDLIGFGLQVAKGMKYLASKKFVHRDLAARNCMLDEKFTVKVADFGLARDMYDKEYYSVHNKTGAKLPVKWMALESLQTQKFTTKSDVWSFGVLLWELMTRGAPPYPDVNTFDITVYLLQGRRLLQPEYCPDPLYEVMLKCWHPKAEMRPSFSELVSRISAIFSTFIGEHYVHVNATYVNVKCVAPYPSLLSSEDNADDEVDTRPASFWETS

Nc1cnc(N2CCc3cc(S(=O)(=O)Nc4c(F)cc(Cl)cc4F)cc(N4CCCC4=O)c32)nc1
inactive: residual activity [1] 100% | residual activity [2] 96% | residual activity [3] 100% | residual activity [4] 100% | residual activity [5] 100% | residual activity [6] 100% | residual activity [7] 100% | residual activity [8] 100% | residual activity [9] 100% | residual activity [10] 82% | residual activity [11] 71% | residual activity [12] 77% | residual activity [13] 100% | residual activity [14] 84% | residual activity [15] 100% | residual activity [16] 88% | residual activity [17] 100% | residual activity [18] 100% | residual activity [19] 100% | residual activity [20] 100% | residual activity [21] 84% | residual activity [22] 69% | residual activity [23] 100% | residual activity [24] 77% | residual activity [25] 97% | residual activity [26] 100% | residual activity [27] 96% | residual activity [28] 75% | residual activity [29] 100% | residual activity [30] 98% | residual activity [31] 72% | residual activity [32] 100% | residual activity [33] 98% | residual activity [34] 99% | residual activity [35] 100% | residual activity [36] 100% | residual activity [37] 100% | residual activity [38] 100% | residual activity [39] 100% | residual activity [40] 100% | residual activity [41] 70% | residual activity [42] 100% | inhibition [43] -4.55% | inhibition [44] 9.34% | inhibition [45] -2.69%

Cn1nc(C(F)(F)F)cc1-c1cnc(N2CCc3cc(S(=O)(=O)Nc4c(F)cc(Cl)cc4F)cc(N4CCCC4=O)c32)nc1 [TP-020]
inactive: residual activity [1] 85% | residual activity [2] 96% | residual activity [3] 100% | residual activity [4] 100% | residual activity [5] 100% | residual activity [6] 96% | residual activity [7] 100% | residual activity [8] 96% | residual activity [9] 100% | residual activity [10] 100% | residual activity [11] 100% | residual activity [12] 100% | residual activity [13] 100% | residual activity [14] 78% | residual activity [15] 100% | residual activity [16] 99% | residual activity [17] 91% | residual activity [18] 82% | residual activity [19] 94% | residual activity [20] 73% | residual activity [21] 83% | residual activity [22] 100% | residual activity [23] 100% | residual activity [24] 100% | residual activity [25] 72% | residual activity [26] 86% | residual activity [27] 100% | residual activity [28] 79% | residual activity [29] 98% | residual activity [30] 100% | residual activity [31] 85% | residual activity [32] 84% | residual activity [33] 100% | residual activity [34] 93% | residual activity [35] 96% | residual activity [36] 83% | residual activity [37] 82% | residual activity [38] 97% | residual activity [39] 99% | residual activity [40] 100% | residual activity [41] 93% | residual activity [42] 75% | inhibition [43] 14.8% | inhibition [44] 0.95% | inhibition [45] 10.2%
